Where two headings read alike, the source gives them in different places.
Tests used:
SNU-398 cells = test: CellTiter-Glo viability assay, SNU-398; assay type: cell-based, human; settings: for IC50: read-out: IC50 of cell proliferation / viability
Procedure: (§1) Cells were plated in RPMI culture media (40 μL) in 384-well white, flat-bottom plates (Corning) and incubated at 37° C. in a humidified atmosphere of 5% CO2 overnight. The numbers of cells per well were 1,500 for SNU-398 and SNU-182, 750 for SNU-387, SNU-449, SNU-475 and SNU-423, and 1,000 for H661 and H1299. After overnight incubation, 10 μL of drug (1% DMSO in RPMI) at designed concentrations were added to the cells. The cells were then incubated for 16, 24, 48, 72, or 96 h at 37° C. in a humidified atmosphere of 5% CO2 before CellTiter-Glo reagent (10 μL) was dispensed to the wells. The cells were incubated at room temperature for a minimum of 10 min. After that, luminescence readings were recorded by a Microplate Reader (PHERAstar or Tecan Infinite M200 Pro) according to the manufacturer's instruction for measuring the luminescence.

[1] = target: T1, SALL4B-Nluc in H1299 cells (Homo sapiens, UniProt Q96SW2+Q9UJQ4); test: Dual-luciferase SALL4B reporter cellular assay (main screen), Nluc/Fluc ratio; assay type: cell-based
T1 construct: expressed in transfected cells
Source text: SALL4A or SALL4B was cloned into the dual-luciferase plasmid (pLL3.7-EF1a-IRES-Gateway-nluc-2xHA-IRES2-fluc-hCL1-P2A-Puro from Prof. William G. Kaelin group) to create a stable cell line (H1299, SALL4 negative) that ectopically express the SALL4A or B-NanoLuc fusion protein. SALL4A or B fused to nanoluciferase (Nluc) was expressed in a multicistronic mRNA with control firefly luciferase (Fluc). The measurement of Nluc/Fluc ratio enabled the determination of SALL4 fusion protein degradation relative to the internal Fluc control, independent of effects on transcription (FIG. 1A-B).
The assay was performed as described in Example 1 except in a 1,536-well plate which allows HTS of thermal shift hits from the primary screen, searching for SALL4 small molecule binders that can degrade the oncogenic SALL4B isoform. H1299 cells that stably express SALL4A/B_Nluc_Fluc were seeded in a 1,536-well clear bottom white plate (Corning) at 2,000 cells per well in RPMI medium (6 μL) and grown overnight (16 h) at 37° C., 5% CO2. Cells were treated with 8 μM of compounds for 6 h. Nano-Glo® Dual-Luciferase® Reporter Assay System and Pherastar plate reader were used for measuring the luciferase signal, following the manufacturer's instruction. For data analysis, the Nanoluc luminescence is normalized to firefly luciferase reading and then compared to the DMSO control. The screen was performed in triplicates.
The inventors treated H1299 cells overexpressing SALL4B_Nluc and the HCC (SNU-398, SNU-182) and NSCLC cells (H661) with increasing concentrations of QE-18-WG07 and IMiDs, and assayed the SALL4B_Nluc, as well as the endogenous SALL4A and B levels by immunoblots described in Example 4.

CRBN = target: T2, CRBN (Homo sapiens, UniProt Q96SW2); test: Cellular Thermal Shift Assay (CETSA) in SNU-398 cell lysates; assay type: binding; settings: from 51 to 56° C., read-out: overall thermal shift of CRBN
T2 construct: endogenous in cells; host or cells: SNU-398 cell lysate
Procedure: Cells were washed with cold PBS and harvested into 50 mL tubes and centrifuged at 1,200×g for 5 min. For cell lysis, cells were resuspended in 1× NP-40 lysis buffer containing 10 mM Tris-HCl (pH 7.4), 150 mM NaCl, 2.7 mM KCl and 0.4% NP-40, and rotated end-over-end at 4° C. for 30 min. The cell lysate was centrifuged at 20,000 rpm for 10 min at 4° C. and the supernatant was collected. The cell lysate was divided into two aliquots, with one aliquot being treated with QE-18-WG07, and the other aliquot with DMSO control. After specific incubation time at room temperature, the respective lysates were divided into smaller aliquots of 40 μL and heated individually at different temperatures (51-56° C.) for 3 min in a thermal cycler, followed by a 3-min cool-down at room temperature. The heated lysates were centrifuged at 15,000 rpm for 10 min at 4° C. to separate the soluble fractions from the precipitates. The supernatants were transferred to new microtubes and analyzed by SDS-PAGE, followed by western blot analysis described in Example 4. The integrated band intensities were quantified by ImageJ. The thermal curves were analyzed by nonlinear regression using Graph Pad Prism.

H661 cells = test: CellTiter-Glo viability assay, H661; assay type: cell-based; settings: Homo sapiens
Procedure: as §1

T1 sequence (Q9UJQ4 1-616 isoform Q9UJQ4-2): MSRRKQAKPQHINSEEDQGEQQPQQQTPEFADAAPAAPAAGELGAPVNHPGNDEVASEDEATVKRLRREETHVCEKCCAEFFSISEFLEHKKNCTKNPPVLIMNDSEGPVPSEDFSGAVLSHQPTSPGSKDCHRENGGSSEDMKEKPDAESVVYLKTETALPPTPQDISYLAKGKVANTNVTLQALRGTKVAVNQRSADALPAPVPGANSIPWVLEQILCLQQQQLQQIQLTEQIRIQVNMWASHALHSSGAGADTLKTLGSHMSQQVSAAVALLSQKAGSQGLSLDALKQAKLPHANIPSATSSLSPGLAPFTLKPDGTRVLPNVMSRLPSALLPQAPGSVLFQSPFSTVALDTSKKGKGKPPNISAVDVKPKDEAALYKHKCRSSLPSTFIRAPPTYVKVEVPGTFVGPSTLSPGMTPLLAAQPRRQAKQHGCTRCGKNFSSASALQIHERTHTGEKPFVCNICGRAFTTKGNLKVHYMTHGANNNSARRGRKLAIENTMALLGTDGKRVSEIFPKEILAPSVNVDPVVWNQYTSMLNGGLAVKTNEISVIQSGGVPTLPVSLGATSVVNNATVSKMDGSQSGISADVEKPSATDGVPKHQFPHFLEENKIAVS
T1 sequence (Q96SW2 whole entry): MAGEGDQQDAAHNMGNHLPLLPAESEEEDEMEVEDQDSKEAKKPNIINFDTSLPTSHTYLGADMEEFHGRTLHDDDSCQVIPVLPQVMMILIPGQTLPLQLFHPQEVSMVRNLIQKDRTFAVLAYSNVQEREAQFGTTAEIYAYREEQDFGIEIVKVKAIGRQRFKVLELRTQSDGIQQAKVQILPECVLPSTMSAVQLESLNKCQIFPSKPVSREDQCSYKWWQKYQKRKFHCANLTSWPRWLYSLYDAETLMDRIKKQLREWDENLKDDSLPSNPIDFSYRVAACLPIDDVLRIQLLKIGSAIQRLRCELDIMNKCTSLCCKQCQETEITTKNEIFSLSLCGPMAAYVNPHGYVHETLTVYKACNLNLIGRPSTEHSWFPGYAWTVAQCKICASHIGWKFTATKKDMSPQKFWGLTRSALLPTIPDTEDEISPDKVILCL
T1 sequence (Q16531 whole entry partner): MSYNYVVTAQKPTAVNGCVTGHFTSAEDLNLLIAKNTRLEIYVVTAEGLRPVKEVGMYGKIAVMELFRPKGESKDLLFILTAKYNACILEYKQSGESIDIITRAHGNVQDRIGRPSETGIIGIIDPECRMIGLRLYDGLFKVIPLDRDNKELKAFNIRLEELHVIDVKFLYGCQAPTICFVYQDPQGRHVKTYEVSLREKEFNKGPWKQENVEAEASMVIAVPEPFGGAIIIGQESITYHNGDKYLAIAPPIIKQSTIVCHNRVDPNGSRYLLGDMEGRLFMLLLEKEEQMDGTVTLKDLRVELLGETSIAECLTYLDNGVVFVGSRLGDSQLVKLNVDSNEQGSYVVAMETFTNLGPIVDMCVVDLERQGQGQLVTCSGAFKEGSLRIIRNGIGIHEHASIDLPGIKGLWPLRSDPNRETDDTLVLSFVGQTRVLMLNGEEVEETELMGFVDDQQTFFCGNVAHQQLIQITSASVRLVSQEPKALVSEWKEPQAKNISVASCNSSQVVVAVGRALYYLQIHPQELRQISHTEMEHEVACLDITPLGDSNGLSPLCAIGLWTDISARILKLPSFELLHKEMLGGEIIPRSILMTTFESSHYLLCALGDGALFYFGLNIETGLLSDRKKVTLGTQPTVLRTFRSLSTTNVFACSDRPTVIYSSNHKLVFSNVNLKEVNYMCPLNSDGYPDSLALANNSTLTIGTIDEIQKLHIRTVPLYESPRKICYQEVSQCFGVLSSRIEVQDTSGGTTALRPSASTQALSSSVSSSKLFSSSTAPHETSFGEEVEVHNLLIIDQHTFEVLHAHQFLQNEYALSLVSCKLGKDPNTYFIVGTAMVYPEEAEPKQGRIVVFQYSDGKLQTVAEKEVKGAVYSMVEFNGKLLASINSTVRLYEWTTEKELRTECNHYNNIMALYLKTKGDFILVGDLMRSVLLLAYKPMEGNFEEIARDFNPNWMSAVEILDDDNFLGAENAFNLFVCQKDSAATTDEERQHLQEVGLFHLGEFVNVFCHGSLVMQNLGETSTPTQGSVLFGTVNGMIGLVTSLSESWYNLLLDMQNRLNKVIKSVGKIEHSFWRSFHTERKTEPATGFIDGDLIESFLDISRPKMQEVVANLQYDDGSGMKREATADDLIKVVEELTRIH
T2 sequence (Q96SW2 whole entry): as the sequence (Q96SW2 whole entry) above

COc1ccccc1NC(=O)Nc1ccc([N+](=O)[O-])cc1O [QE-18-WG07]
IC50 (SNU-398 cells; 72 h): 397 nM
Emax at 1 µM (SNU-398 cells; Homo sapiens, 72 h, achieved at 1 μM, read-out: maximum growth inhibition Emax): 90 to 100%
EC50 (SNU-398 cells; Homo sapiens, 72 h cell viability, read-out: half maximal growth inhibition EC50): 310 nM
IC50 (SNU-398 cells; Homo sapiens, SNU-398, 72 h, 72 h): 280 nM
main screen readout ([1]; 8 μM, 6 h, H1299 cells overexpressing SALL4B fused with Nluc): −31
Dmax ([1]; NCI-H1299, SALL4B dual-luciferase reporter assay, 9 hours of treatment, read-out: maximum degradation (Dmax) of SALL4B_Nluc): 75%
reduction in the amount of SALL4B protein ([1]; after 6 h of incubation in H1299 cells overexpressing SALL4B fused with Nluc): 31%
SALL4B_Luc Reporter Assay % SALL4B Downregulation ([1]; normalized to DMSO control, mean ± SD (n = 3), 8 μM, 6 h treatment, H1299 cells): 29.8 ± 1.8%
ΔTm at 50 µM (CRBN): ≤ 5 °C
Emax at 1 µM (H661 cells; NCI-H661, 72 h, achieved at 1 μM, read-out: maximum growth inhibition Emax): 90 to 100%
IC50 (H661 cells; NCI-H661, 72 h, read-out: IC50 of cell viability): 522 nM
EC50 (H661 cells; NCI-H661, 72 h cell viability, read-out: half maximal growth inhibition EC50): 420 nM
